ChEMBL document CHEMBL1157896, “A repurposing strategy identifies novel synergistic inhibitors of Plasmodium falciparum heat shock protein 90” (J Med Chem, 2010)
The source made the active and inactive calls. The rule behind the calls is not given here.

What was measured:
Plasmodium falciparum [1] = experiment: Antimalarial activity against chloroquine-resistant Plasmodium falciparum W2 infected in human erythrocytes after 48 hrs by flow-cytometry; type: functional, organism-based; settings: W2, 48 h
Plasmodium falciparum [2] = experiment: Antimalarial activity against multidrug-resistant Plasmodium falciparum isolate 208432 infected in human erythrocytes after 48 hrs by flow-cytometry; type: functional, organism-based; settings: isolate 208432, 48 h
Plasmodium falciparum [3] = experiment: Antimalarial activity against Plasmodium falciparum 3D7 infected in human erythrocytes after 48 hrs by flow-cytometry; type: functional, organism-based; settings: 3D7, 48 h
Plasmodium falciparum [4] = experiment: Displacement of bis-ANS from Plasmodium falciparum 3D7 Hsp90 expressed in Escherichia coli BL21(DE3) assessed as reduction in fluorescence at 100 uM after 30 min by fluorescent monochromator spectrophotometry; type: functional; parameters: scale not given: the % may be the effect or the level left
[5] = target: Heat shock protein HSP90 (Homo sapiens) (UniProt P07900+P08238); experiment: Displacement of bis-ANS from human Hsp90 assessed as reduction in fluorescence at 100 uM after 30 mins by fluorescent monochromator spectrophotometry; type: protein assay

## COc1ccc2c(c1)[nH]c1c(C)nccc12 [HARMINE]
Plasmodium falciparum [1]
  IC50: 0.028 µM
Plasmodium falciparum [2]
  IC50: 0.182 µM
Plasmodium falciparum [3]
  IC50: 0.0501 µM
Plasmodium falciparum [4]
  Activity: > 70%
[5]
  Activity: inactive

## OC(c1cc(C(F)(F)F)nc2c(C(F)(F)F)cccc12)C1CCCCN1 (stereo not given) [MEFLOQUINE]
Plasmodium falciparum [1]
  IC50: 0.0032 µM
Plasmodium falciparum [3]
  IC50: 0.0021 µM

## NC(CP(=O)(O)O)C(=O)O (racemic)
Plasmodium falciparum [1]
  IC50: 0.0844 µM
Plasmodium falciparum [2]
  IC50: 0.0471 µM
Plasmodium falciparum [3]
  IC50: 0.0603 µM
Plasmodium falciparum [4]
  Activity: > 70%
[5]
  Activity: inactive

## C[C@@H]1CC[C@H]2[C@@H](C)C(=O)O[C@@H]3O[C@@]4(C)CC[C@@H]1[C@]32OO4 [ARTEMISININ]
Plasmodium falciparum [1]
  IC50: 0.0073 µM
Plasmodium falciparum [2]
  IC50: 0.0683 µM
Plasmodium falciparum [3]
  IC50: 0.0061 µM
